Key:
HLA-DRB1*0301 = HLA-DRB1*0301 (Homo sapiens, UniProt P01903+P01911, A100K/A102G/A103R/A169T/F55Y/I96L/K41T/L162R/M171V/P40S/Q125H/Q178H/Q39Y/R42S/S66N/T106N/T262R/W38E/Y61H); assay: Peptide-MHCII competition binding assay; details: competition ELISA, pH 5.9, peptide 90.000nM – 0.9nM, HLA-DRB1 30 nM, biotinylated peptide 15nM, duplicate wells; ratios below 10 = good binding; reference peptide SFLLTDLINRRTPRVDGQ
Experimental: (§1) Quantitative peptide-MHCII competition binding assays were carried out to determine binding avidities of the 18 20-mer FVIII peptides to 6 HLA-DRB1. Data are presented as ratio between reference peptide IC50/FVIII-peptide IC50 tested. Briefly, non-biotinylated FVIII peptides have been diluted at a concentration of 20 mM in DMSO. 10-µl aliquots of serially diluted (90.000nM – 0.9nM in n-Octyl b-D-Glucopyranoside, 2.5 mg/ml in 1x phosphate buffer, pH 5.9) of non-biotinylated FVIII peptides, were added to duplicate wells of 96-well polypropylene plates. Serially diluted non-FVIII reference peptides known to bind to the specific HLA-DRB1 were added to separate wells as positive controls. Next, the biotinylated peptide at a concentration of 2mM was use to prepare 1000-fold pre-dilution to reach a final concentration of 15nM. The HLA-DRB1 proteins were diluted to 30 nM in n-Octyl β-D-Glucopyranoside, 2.5 mg/ml in 1x phosphate buffer, pH 5.9. […] SA-HRP (diluted 5000x in 1xPBS 0.1% Tween20) was added to each well. The plates were covered and incubated at room temperature for 60 min […] and washed. TMB (100 μl/well) was then added, and the plates were incubated at room temperature for 15-30 min. ELISA stopping solution (0.5M H2SO4) was added and then read on a FLUOstar OPTIMA fluorometer. Sigmoidal binding curves were simulated and IC50 values calculated for the FVIII peptides, based on their competition with the reference peptides for each HLA-DRB1. Data were reported as the ratio between the values of the tested peptide and of the reference peptide. Ratios below 10 correspond to good biding affinity.

HLA-DRB1*0701 = HLA-DRB1*0701 (Homo sapiens, UniProt P01903+P01911, A100R/A102G/A103Q/D57E/D86V/E43K/F76Y/K127E/L162R/M171V/P40G/Q125H/Q99D/R33Q/R42Y/R54Q/S133A/S66F/T210M/V115G/Y107V/Y59L/Y89S); assay: Peptide-MHCII competition binding assay; details: competition ELISA, pH 5.9, peptide 90.000nM – 0.9nM, HLA-DRB1 30 nM, biotinylated peptide 15nM, duplicate wells; ratios below 10 = good binding; reference peptide PVDLHAFLSQAVFS
Experimental: as §1

HLA-DRB1*1101 = HLA-DRB1*1101 (Homo sapiens, UniProt P01903+P01911, A100R/A169T/A87E/I96F/K41T/L162R/M171V/P40S/Q125H/Q178H/Q39Y/Q99D/R42S/S66Y/T262R/V115G/W38E); assay: Peptide-MHCII competition binding assay; details: competition ELISA, pH 5.9, peptide 90.000nM – 0.9nM, HLA-DRB1 30 nM, biotinylated peptide 15nM, duplicate wells; ratios below 10 = good binding; reference peptide […]
Experimental: as §1

HLA-DRB1*0101 = HLA-DRB1*0101 (Homo sapiens, UniProt P01903+P01911, A100R/D57E/F55L/F60I/F76Y/I96L/L162R/M171V/P40L/Q125E/R42F/V115G/Y59C); assay: Peptide-MHCII competition binding assay; details: competition ELISA, pH 5.9, peptide 90.000nM – 0.9nM, HLA-DRB1 30 nM, biotinylated peptide 15nM, duplicate wells; ratios below 10 = good binding; reference peptide […]
Experimental: as §1

HLA-DRB1*0401 = HLA-DRB1*0401 (Homo sapiens, UniProt P01903+P01911, A100K/A169T/F76Y/I96L/K127E/L162R/M171V/N62H/P40V/Q125Y/R42H/S133A/S149N/S66Y/V115G/V209L/W38E); assay: Peptide-MHCII competition binding assay; details: competition ELISA, pH 5.9, peptide 90.000nM – 0.9nM, HLA-DRB1 30 nM, biotinylated peptide 15nM, duplicate wells; ratios below 10 = good binding; reference peptide […]
Experimental: as §1

[1] = test system: CD4 T cells from healthy donors; assay: Large-scale CD4 T cell epitope mapping by IFN-γ ELISPOT (16 donors); type: cell-based, human; details: for Donor coverage ( %): of 16 donors; for responding donors: of 16 healthy donors, individual peptide 10 µg/ml; for response intensity ( %): percentage of 872 FVIII-specific T cell lines
From the text: PBMCs were purified from the whole blood of anonymous healthy donors, who gave informed consent (Etablissement Français du Sang, Rungis, France), using Ficoll-Paque®. Monocyte-derived dendritic cells (DCs) were produced from cells isolated using Percoll gradient by 5 days of culture in AIM-V medium (Invitrogen, Villebon-sur-Yvette, France) supplemented with 1,000 U/ml recombinant human (rh) IL-4 and rhGM-CSF (both from R&D Systems, Lille, France). Mature DCs were produced by two supplementary days of culture in the presence of LPS (1 µg/ml) and R848 (10µg/ml). CD4 T cells were isolated from autologous PBMCs by positive selection using magnetic labeling with anti-CD4 mAbs conjugated to magnetic microbeads followed by magnetic cell sorting, as recommended by the manufacturer (Miltenyi Biotec, Bergisch Gladbach, Germany). Immature DCs were loaded overnight at 37 °C with either 0.2 µM of rFVIII, 0.2 µM of ovalbumin, or 0.25 µM of KLH in 96-well U-bottom plates, while mature DCs were used for FVIII peptides (10 ug/ml). CD4 T cell lines were generated in vitro in IMDM (Invitrogen) supplemented with 10% human serum, 0.24 mM glutamine, 0.55 mM asparagine, 1.5 mM arginine (all amino acids from Sigma-Aldrich), 50 U/mL penicillin/50 μg/mL of streptomycin (Invitrogen), 20 IU/mL human IL-2, and 17 IU/ml human IL-7 (premium-grade; Miltenyi Biotec) by three once-per-week rounds of stimulation of CD4 T cells (200,000 per well) with autologous DCs (20,000 per well). 10,000 lymphocytes were collected at day 19 from each T cell line (expanded T cells contained in one well) and their specificity was assessed by using IFN-g ELISPOT.
The T cell lines and APCs were plated at equal number for both stimulated and unstimulated control conditions. […] The spot number was determined by using the ELISPOT Reader System (Autoimmun Diagnostika, Ebinger, Germany). HLA restriction was assessed using monoclonal antibodies (10 μg/ml) specific to HLA-DP (B7/21), HLA-DQ (SPVL3), or HLA-DR (L243).
Based on the T cell epitope prediction software NetMHCpan4.0 ([23]), we selected 63 20-mer peptides that are predicted for their ability to bind promiscuously, with a percentile score below 10%, at least four HLA class II molecules from a selection of 15 preponderant HLA-DR alleles in our panel (as shown in ST1). […] A total of 16 healthy donors with unrelated HLA typing (ST2) were used as sources of T cells to identify FVIII-specific CD4 T cell epitopes. Specific T cell lines were generated by in vitro T cell culture using FVIII and KLH. The peptide specificity of the T cell lines raised against FVIII was assessed by two independent IFN-γ ELISPOT using peptide pools and individual peptides. […] Furthermore, four independent healthy donors were used as sources of T cells to characterize the HLA restriction and to assess the reactivity of T cell lines generated with the 18 peptides toward rFVIII. T cell lines were amplified in vitro for 28 days through stimulation with the pool of 18 peptides and then tested through IFN-γ ELISPOT.

HLA-DRB1*1501 = HLA-DRB1*1501 (Homo sapiens, UniProt P01903+P01911); assay: Peptide-MHCII competition binding assay; details: competition ELISA, pH 5.9, peptide 90.000nM – 0.9nM, HLA-DRB1 30 nM, biotinylated peptide 15nM, duplicate wells; ratios below 10 = good binding; reference peptide ENPVVHFFKNIVTPR
Experimental: as §1

Sequence: GHTFLVRNHRQASLEISPIT [P292-311, 20-mer FVIII peptide, A1 domain]
- Ratio IC50 DRB1*0301 (HLA-DRB1*0301): 72
- Ratio IC50 DRB1*0701 (HLA-DRB1*0701): 1
- Ratio IC50 DRB1*1101 (HLA-DRB1*1101): 0.05
- Ratio IC50 DRB1*0101 (HLA-DRB1*0101): 34
- Ratio IC50 DRB1*0401 (HLA-DRB1*0401): 22.5
- nb positive T cell lines ([1]; across all 16 donors): 26
- cumulative donor coverage (%) ([1]; cumulative over peptides ranked by donor coverage): 81%
- Donor coverage ( %) [1]: 75%
- responding donors [1]: 12
- response intensity ( %) [1]: 2,98%

Sequence: TQGVKSLLTSMYVKEFLISS [P2264-2283, 20-mer FVIII peptide, C2 domain]
- Ratio IC50 DRB1*0301 (HLA-DRB1*0301): 17
- Ratio IC50 DRB1*1501 (HLA-DRB1*1501): 480
- Ratio IC50 DRB1*0701 (HLA-DRB1*0701): 0.05
- Ratio IC50 DRB1*1101 (HLA-DRB1*1101): 0.05
- Ratio IC50 DRB1*0101 (HLA-DRB1*0101): 6242
- Ratio IC50 DRB1*0401 (HLA-DRB1*0401): 5.5
- Donor coverage ( %) [1]: 50%
- responding donors [1]: 8
- response intensity ( %) [1]: 1,72%

Source: PMC10951066, “The self-reactive FVIII T cell repertoire in healthy individuals relies on a short set of epitopes and public clonotypes” (Frontiers in Immunology, 2024)
